This note sets out measurements from patent US20210038564A1, “METHODS FOR SCAR PREVENTION” (Northwestern University, priority 2009, published 2021).

The subject of the test is hypertrophic scar formation. In words: Hypertrophic scar model in rabbit ear, 7-mm wounds, scar elevation index. The format is in vivo, rabbit (New Zealand White). The text has this:
Using a well-established hypertrophic scar model in rabbit ear (Brown et al. (2008) Plast. Reconstr. Surg. 121:1165-1172; Kim et al. (2003) Wound Repair Regen. 11:368-372; Kryger et al. (2007) J Am. Coll. Surg. 205:78-88; Lu et al. (2005) J Am. Coll. Surg. 201:391-397; Morris et al. (2007) Plast. Reconstr. Surg. 100:674-681; Reid et al. (2006) Wound Repair Regen. 14:138-141; Reid et al. (2007) J Plast. Reconstr. Aesthet. Surg. 60:64-72; Saulis et al. (2002) Plast. Reconstr. Surg. 110:177-183; each herein incorporated by reference in its entirety), the effects of local administration of statins (e.g., Simvastatin, Lovastatin, Prevastatin) were investigated in experiments conducted during the course of developing some embodiments of the present technology. […] The effectiveness of statin administration on inhibition of hypertrophic scar formation was assessed by histological determination of scar elevation index (FIG. 1). The scar elevation index is determined by the ratio of total wound area tissue height to the area of normal tissue below the hypertrophic scar. […]
Whereas the dosages in terms of μMol were equivalent for all 3 statins, the μg dosage levels for Lovastatin and Prevastatin were double those used for Simvastatin. Scar Elevation Index was determined for 28 rabbits, as indicated: […]

As to `CC[C@H](C)C(=O)O[C@H]1C[C@@H](C)C=C2C=C[C@H](C)[C@H](CC[C@@H]3C[C@@H](O)CC(=O)O3)[C@H]21` [Lovastatin], the hypertrophic scar formation result (40 μM per wound, local injection) is recorded as “inhibit hypertrophic scar formation”. Also, the “scar elevation index (SEI)” value (lowest level of drug administered (40 μM per wound), injections on days 15, 20, 25, harvest on day 35, versus vehicle) was “significantly lower SEI”.
